Assay results taken from ChEMBL document CHEMBL1201862, “PubChem BioAssay data set” (2004).
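Step 1: Grow cells in 96-well plates. Step 2: Expose to compound for 48 hours at 5 concentrations. Step 3: Interpolate endpoints linearly; if unreached, use highest concentration. GI50 = concentration required for 50% inhibition of growth.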 Active and inactive are the calls of the source. Rule as the data show it: active = GI50 up to about 1.1 µM and inactive = higher.

Assays:
Test in all cases: NCI tumour cell line growth inhibition, 48 h
MOLT-4 = tested on: MOLT-4
MDA-N = tested on: MDA-N
BT-549 = tested on: BT-549
HL-60 = tested on: HL-60
RXF 393 = tested on: RXF 393
NCI/ADR-RES = tested on: NCI/ADR-RES
Malme-3M = tested on: Malme-3M
NCI-H460 = tested on: NCI-H460
OVCAR-5 = tested on: OVCAR-5
EKVX = tested on: EKVX
COLO 205 = tested on: COLO 205
MCF7 = tested on: MCF7
SF-539 = tested on: SF-539
786-0 = tested on: 786-0
DU-145 = tested on: DU-145
SF-268 = tested on: SF-268
M14 = tested on: M14
OVCAR-4 = tested on: OVCAR-4
LOX IMVI = tested on: LOX IMVI
SK-MEL-2 = tested on: SK-MEL-2

Measured: GI50

COc1cc(COC(=O)N2CCCCC2C(=O)O)c([N+](=O)[O-])cc1OC (stereo not given)
inactive: MOLT-4 > 100 µM | MDA-N > 100 µM | BT-549 > 100 µM | HL-60 > 100 µM | RXF 393 > 100 µM | NCI/ADR-RES > 100 µM | Malme-3M > 100 µM | NCI-H460 > 100 µM | OVCAR-5 > 100 µM | EKVX > 100 µM | COLO 205 > 100 µM | MCF7 > 100 µM | SF-539 > 100 µM | 786-0 > 100 µM | DU-145 > 100 µM | SF-268 > 100 µM | M14 > 100 µM

O=C(Nc1sccc1S(=O)(=O)c1ccccc1)c1ccccc1
inactive: MOLT-4 > 100 µM | MDA-N 3.73 µM | BT-549 > 100 µM | NCI/ADR-RES > 100 µM | Malme-3M > 100 µM | OVCAR-4 > 57.9 µM | NCI-H460 > 31.6 µM | OVCAR-5 > 100 µM | EKVX > 100 µM | COLO 205 > 88.1 µM | MCF7 > 100 µM | SF-539 > 100 µM | 786-0 > 100 µM | LOX IMVI > 100 µM | DU-145 > 100 µM | SF-268 > 100 µM | SK-MEL-2 > 100 µM | M14 > 100 µM

O=S(=O)(O)c1ccc(O)c2ncc(Cl)cc12
inactive: MOLT-4 > 100 µM | MDA-N > 100 µM | BT-549 > 100 µM | RXF 393 > 100 µM | NCI/ADR-RES > 100 µM | OVCAR-4 > 100 µM | NCI-H460 > 100 µM | OVCAR-5 > 100 µM | EKVX > 100 µM | COLO 205 > 100 µM | MCF7 > 100 µM | SF-539 > 100 µM | 786-0 > 100 µM | LOX IMVI > 100 µM | DU-145 > 100 µM | SK-MEL-2 > 100 µM | M14 > 100 µM

CSc1ncc2c(n1)-c1ccccc1OC2N1CCCC1 (stereo not given)
inactive: MOLT-4 79.8 µM | MDA-N > 100 µM | BT-549 75 µM | HL-60 52.7 µM | RXF 393 64.6 µM | NCI/ADR-RES 93.8 µM | OVCAR-4 21 µM | NCI-H460 > 100 µM | OVCAR-5 > 100 µM | EKVX 42.1 µM | COLO 205 > 100 µM | MCF7 71.3 µM | SF-539 84.5 µM | 786-0 > 100 µM | LOX IMVI > 100 µM | DU-145 > 100 µM | SF-268 > 100 µM | SK-MEL-2 > 100 µM | M14 > 100 µM

CCCCCCCCCCCCCCCCOCC(CC(F)(F)P(=O)(OCC)OCC)OC(C)=O (stereo not given)
inactive: MOLT-4 28.1 µM | MDA-N 16.9 µM | BT-549 15.2 µM | RXF 393 23.8 µM | NCI/ADR-RES 16.3 µM | Malme-3M 10.6 µM | OVCAR-4 14.9 µM | NCI-H460 10.7 µM | OVCAR-5 18.3 µM | EKVX 21.7 µM | COLO 205 18.2 µM | MCF7 15.8 µM | 786-0 10.8 µM | DU-145 15.4 µM | SF-268 12.6 µM | SK-MEL-2 19.6 µM | M14 17.9 µM

CC1C2CC(C(S(=O)(=O)O)C2=O)C1(C)C (stereo not given)
inactive: MOLT-4 > 100 µM | MDA-N > 100 µM | BT-549 > 100 µM | HL-60 > 100 µM | RXF 393 > 100 µM | Malme-3M > 100 µM | OVCAR-4 > 100 µM | NCI-H460 > 100 µM | OVCAR-5 > 100 µM | EKVX > 100 µM | COLO 205 > 100 µM | MCF7 > 100 µM | SF-539 > 100 µM | 786-0 > 100 µM | DU-145 > 100 µM | SF-268 > 100 µM | M14 > 100 µM

Oc1cc(-c2ccccc2)nc2cc3c(cc12)OCO3
inactive: MOLT-4 15.1 µM | MDA-N 4.11 µM | BT-549 40.8 µM | HL-60 4.11 µM | RXF 393 5.69 µM | Malme-3M 3.76 µM | OVCAR-4 > 97.3 µM | NCI-H460 7.87 µM | OVCAR-5 > 84.3 µM | EKVX 15.6 µM | COLO 205 6.21 µM | MCF7 36.8 µM | SF-539 6.05 µM | 786-0 9.95 µM | LOX IMVI 11.6 µM | DU-145 79.4 µM | SF-268 3.83 µM | SK-MEL-2 19.5 µM | M14 7.36 µM

C=C1CN(Cc2ccccc2)[C@@H]2CCCCC[C@H](C#N)[C@H]12
inactive: MOLT-4 24.3 µM | MDA-N > 100 µM | BT-549 > 100 µM | RXF 393 > 60.8 µM | NCI/ADR-RES > 77.4 µM | Malme-3M > 100 µM | OVCAR-4 > 100 µM | NCI-H460 > 78.2 µM | OVCAR-5 > 100 µM | EKVX > 100 µM | COLO 205 > 100 µM | MCF7 > 100 µM | SF-539 > 100 µM | 786-0 > 100 µM | LOX IMVI 95.9 µM | DU-145 > 100 µM | SF-268 > 100 µM | SK-MEL-2 > 100 µM | M14 > 100 µM

Clc1ccc(NCc2nnc(CCCCCCCCc3nnc(CNc4ccc(Cl)cc4)o3)o2)cc1
inactive: MOLT-4 > 100 µM | MDA-N > 100 µM | BT-549 > 100 µM | RXF 393 > 100 µM | NCI/ADR-RES > 100 µM | Malme-3M > 100 µM | OVCAR-4 > 100 µM | NCI-H460 > 100 µM | OVCAR-5 > 100 µM | EKVX > 100 µM | COLO 205 > 100 µM | MCF7 > 100 µM | 786-0 > 100 µM | LOX IMVI > 100 µM | DU-145 > 100 µM | SF-268 > 100 µM | SK-MEL-2 > 100 µM | M14 > 100 µM

CCCCN(CCCC)c1ccc(/N=N/c2ccc(S(=O)(=O)O)cc2)cc1
inactive: MOLT-4 17.7 µM | MDA-N 52.2 µM | BT-549 35.2 µM | HL-60 19.8 µM | RXF 393 14.4 µM | NCI/ADR-RES 24.4 µM | OVCAR-4 17.8 µM | NCI-H460 34 µM | OVCAR-5 60.8 µM | EKVX 39.1 µM | COLO 205 18.7 µM | MCF7 21.9 µM | SF-539 16.7 µM | LOX IMVI 18.9 µM | DU-145 39.2 µM | SF-268 > 100 µM | SK-MEL-2 51.1 µM | M14 > 100 µM

O=C1c2ccccc2-n2c1nc1cc(Cl)ccc1c2=O
inactive: MOLT-4 11.9 µM | MDA-N 14.5 µM | BT-549 > 100 µM | RXF 393 55.7 µM | NCI/ADR-RES > 100 µM | Malme-3M 6.7 µM | OVCAR-4 27.7 µM | NCI-H460 30.3 µM | OVCAR-5 > 100 µM | EKVX > 100 µM | COLO 205 > 100 µM | MCF7 > 100 µM | SF-539 > 100 µM | 786-0 89.7 µM | LOX IMVI 14 µM | DU-145 24.1 µM | SF-268 61.9 µM | SK-MEL-2 43.9 µM | M14 15.8 µM

O=C(N/N=C/c1ccc(Cl)cc1)c1cc(I)cc(I)c1O
inactive: MOLT-4 > 100 µM | MDA-N > 100 µM | BT-549 > 100 µM | HL-60 > 100 µM | RXF 393 > 100 µM | NCI/ADR-RES > 100 µM | OVCAR-4 > 100 µM | OVCAR-5 > 100 µM | EKVX > 100 µM | COLO 205 > 100 µM | MCF7 > 100 µM | SF-539 > 100 µM | 786-0 > 100 µM | LOX IMVI > 100 µM | DU-145 > 100 µM | SK-MEL-2 > 100 µM | M14 > 100 µM

CCOC(=O)C(C)c1nc2cc(F)c(N3CCOCC3)cc2[nH]c1=O (stereo not given)
inactive: MOLT-4 85.9 µM | MDA-N > 100 µM | BT-549 > 100 µM | RXF 393 > 100 µM | NCI/ADR-RES > 100 µM | Malme-3M > 100 µM | OVCAR-4 > 100 µM | NCI-H460 39.1 µM | OVCAR-5 > 100 µM | EKVX > 100 µM | COLO 205 > 100 µM | MCF7 > 100 µM | SF-539 > 100 µM | 786-0 > 100 µM | DU-145 > 100 µM | SF-268 > 100 µM | SK-MEL-2 > 100 µM | M14 > 100 µM

CC1=C(C(=O)NC(C)(C)C)CC(C(=O)NC(C)(C)C)C(C)N1 (stereo not given)
inactive: MOLT-4 > 100 µM | MDA-N > 100 µM | BT-549 > 100 µM | HL-60 > 100 µM | RXF 393 > 100 µM | NCI/ADR-RES > 100 µM | OVCAR-4 > 100 µM | NCI-H460 > 100 µM | OVCAR-5 > 100 µM | EKVX > 100 µM | COLO 205 > 100 µM | MCF7 > 100 µM | SF-539 > 100 µM | 786-0 > 100 µM | LOX IMVI > 100 µM | DU-145 > 100 µM | SF-268 > 100 µM | SK-MEL-2 > 100 µM | M14 > 100 µM

O=c1[nH][nH]c(=O)c2c1ccc1oc3ccccc3c12
inactive: MOLT-4 > 100 µM | MDA-N > 100 µM | BT-549 > 100 µM | HL-60 > 100 µM | RXF 393 > 100 µM | Malme-3M > 100 µM | OVCAR-4 > 100 µM | NCI-H460 > 100 µM | OVCAR-5 > 100 µM | EKVX 56.2 µM | COLO 205 > 100 µM | MCF7 > 100 µM | SF-539 > 100 µM | 786-0 > 100 µM | DU-145 > 100 µM | SF-268 > 100 µM | SK-MEL-2 > 100 µM | M14 > 100 µM
